Test system: c-abl
Assay: Phosphorylation of cdc2 kinase substrate c-abl, immunoprecipitation
Type: cell-based, human
Conditions: 50 units/ml TNF or 100 nM OA
Method: Where c-abl (top panel) or p53 (bottom panel) phosphorylation was measured, cells were treated for the times indicated with 50 units/ml TNF or 100 nM OA. Where RB (middle panel) phosphorylation was measured, cells were treated for 15 min with the indicated doses of TNF (in units/ml) or OA (in nM). Cell lysates were immunoprecipitated with antibodies to either c-abl, RB, or p53 (from Oncogene Science). The immunoprecipitated proteins were subjected to 6 or 10% SDS-PAGE and autoradiography. Note that in the middle panel, the lesser extent of RB phosphorylation observed with 500 nM OA as compared to 100 nM OA is due to the loading of about four times less amount of protein in the 500 nM OA than the 100 nM OA-treated sample to the gel. At either concentration of OA, the ratio of the hyperphosphorylated form of RB is higher than the hypophosphorylated form of RB.
Phosphorylation of cdc2 Kinase Substrates in Cells Treated with IL-1, TNF, or Okadaic Acid - It is noted from Fig. 1 (e and f) that the phosphorylation of myosin light chain and nucleolin are enhanced by TNF and okadaic acid treatment. Both proteins are known to be substrates of cdc2 kinase. In this connection, a question was raised as to whether other cdc2 kinase substrates which are known to be phosphorylated by okadaic acid treatment are also effected in TNF-treated human fibroblasts. […]

C=C1[C@@H](O)[C@@H]2O[C@]3(CC[C@H](/C=C/[C@@H](C)[C@@H]4CC(C)=C[C@@]5(O[C@H](C[C@@](C)(O)C(=O)O)CC[C@H]5O)O4)O3)CC[C@H]2O[C@@H]1[C@@H](O)C[C@H](C)[C@H]1O[C@@]2(CCCCO2)CC[C@H]1C [okadaic acid]
phosphorylation of c-abl (in words): enhanced the phosphorylation

Reference: patent EP0551200A1, “Protein phosphatase inhibitors for use in therapy” (priority 1992, dated 1993)
